Several values for one entry are separate records, joined by “and”; a condition that tells them apart may be missing. Equal entries are not always repeated.
Assays:
Assay in all cases: KINOMEscan select kinase screen
Type in all cases: binding
CDK2 = CDK2 (Homo sapiens, UniProt P24941); settings: two experiments
Method: (§1) Kinase Assays. The kinase inhibition assays were conducted by DiscoverX on a platform assay by Ambit BioSciences as described previously 16,17. FKK6 was screened at a single concentration of 10 μM in duplicate. The scanMAXSM assay panel measures 468 kinases
(§2) (https://www.discoverx.com/services/drug-discovery-development-services/kinase-profiling/kinomescan/scanmax). The assays measure a compound’s ability to inhibit binding of a canonical ligand substrate, with 0% activity of control corresponding to full inhibition and 100% activity of control to no inhibition. […]
(§3) quantitative measure of compound selectivity based on the number of kinase hits (enzymes inhibited) divided by the total number of distinct kinases tested. Three different activity cut-offs were analyzed – […]
(§4) ; and S(1) or % activity of control
(§5) < 1. To illustrate effect or lack of effect, an image of the entire family of kinases tested were grouped by families and S(35). The TREEspot Kinase dendrogram image was generated using TREEspot™ Software Tool and reprinted with permission from KINOME scan®, a division of DiscoveRx […]

CDK4 = CDK4 (Homo sapiens, UniProt P11802); settings: two experiments
Method: as §1, §2, §3, §4, §5

CDK5 = CDK5 (Homo sapiens, UniProt Q00535); settings: two experiments
Method: as §1, §2, §3, §4, §5

ERK1 = ERK1 (Homo sapiens, UniProt P27361); settings: 10000 nM, two experiments
Method: as §1, §2, §3, §4, §5

ERK2 = ERK2 (Homo sapiens, UniProt P28482); settings: two experiments
Method: as §1, §2, §3, §4, §5

ERK3 = ERK3 (Homo sapiens, UniProt Q16659); settings: two experiments
Method: as §1, §2, §3, §4, §5

ERK4 = ERK4 (Homo sapiens, UniProt P31152); settings: two experiments
Method: as §1, §2, §3, §4, §5

ERK5 = ERK5 (Homo sapiens, UniProt Q13164); settings: two experiments
Method: as §1, §2, §3, §4, §5

ERK8 = molecular target: T1, ERK8 (Homo sapiens, UniProt Q8TD08); settings: two experiments
T1 sequence (Q8TD08 1-544): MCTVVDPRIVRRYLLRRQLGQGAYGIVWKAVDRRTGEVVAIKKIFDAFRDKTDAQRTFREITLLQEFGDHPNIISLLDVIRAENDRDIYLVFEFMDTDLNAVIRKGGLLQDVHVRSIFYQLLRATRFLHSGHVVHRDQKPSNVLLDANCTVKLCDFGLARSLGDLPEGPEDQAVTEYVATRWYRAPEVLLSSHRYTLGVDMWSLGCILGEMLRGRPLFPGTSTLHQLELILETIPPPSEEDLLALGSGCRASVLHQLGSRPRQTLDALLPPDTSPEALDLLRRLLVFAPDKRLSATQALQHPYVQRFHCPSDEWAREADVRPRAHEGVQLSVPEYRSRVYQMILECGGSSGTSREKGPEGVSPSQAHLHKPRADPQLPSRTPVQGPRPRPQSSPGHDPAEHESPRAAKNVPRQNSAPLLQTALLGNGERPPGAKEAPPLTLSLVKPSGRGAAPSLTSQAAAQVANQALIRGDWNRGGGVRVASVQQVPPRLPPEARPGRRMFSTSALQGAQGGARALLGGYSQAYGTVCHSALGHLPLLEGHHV
Method: as §1, §2, §3, §4, §5

GSK3A = GSK3A (Homo sapiens, UniProt P49840); settings: two experiments
Method: as §1, §2, §3, §4, §5

GSK3B = GSK3B (Homo sapiens, UniProt P49841); settings: two experiments
Method: as §1, §2, §3, §4, §5

IKK-alpha = molecular target: T2, IKK-alpha (Homo sapiens, UniProt O15111); settings: two experiments
T2 sequence (O15111 1-745): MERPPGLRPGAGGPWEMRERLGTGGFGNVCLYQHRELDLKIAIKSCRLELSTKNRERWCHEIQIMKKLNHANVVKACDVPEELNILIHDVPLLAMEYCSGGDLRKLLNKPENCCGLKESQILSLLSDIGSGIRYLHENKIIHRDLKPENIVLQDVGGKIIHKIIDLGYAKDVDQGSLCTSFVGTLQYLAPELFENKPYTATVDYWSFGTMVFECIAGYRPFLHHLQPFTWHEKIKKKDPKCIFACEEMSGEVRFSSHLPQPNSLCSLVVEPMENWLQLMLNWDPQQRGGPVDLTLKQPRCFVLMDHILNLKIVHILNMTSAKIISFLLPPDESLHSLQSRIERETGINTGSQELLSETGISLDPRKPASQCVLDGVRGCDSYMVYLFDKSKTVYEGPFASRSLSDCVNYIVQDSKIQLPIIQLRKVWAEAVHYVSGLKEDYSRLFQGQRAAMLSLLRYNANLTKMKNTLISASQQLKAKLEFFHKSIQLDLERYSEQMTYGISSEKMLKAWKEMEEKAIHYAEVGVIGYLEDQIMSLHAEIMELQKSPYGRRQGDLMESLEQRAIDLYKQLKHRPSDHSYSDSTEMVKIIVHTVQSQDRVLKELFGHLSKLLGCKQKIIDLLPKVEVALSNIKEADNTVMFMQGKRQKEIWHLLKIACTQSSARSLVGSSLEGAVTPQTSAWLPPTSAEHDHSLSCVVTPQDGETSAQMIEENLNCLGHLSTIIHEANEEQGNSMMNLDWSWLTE
Method: as §1, §2, §3, §4, §5

ERK5, sequence (Q13164 whole entry): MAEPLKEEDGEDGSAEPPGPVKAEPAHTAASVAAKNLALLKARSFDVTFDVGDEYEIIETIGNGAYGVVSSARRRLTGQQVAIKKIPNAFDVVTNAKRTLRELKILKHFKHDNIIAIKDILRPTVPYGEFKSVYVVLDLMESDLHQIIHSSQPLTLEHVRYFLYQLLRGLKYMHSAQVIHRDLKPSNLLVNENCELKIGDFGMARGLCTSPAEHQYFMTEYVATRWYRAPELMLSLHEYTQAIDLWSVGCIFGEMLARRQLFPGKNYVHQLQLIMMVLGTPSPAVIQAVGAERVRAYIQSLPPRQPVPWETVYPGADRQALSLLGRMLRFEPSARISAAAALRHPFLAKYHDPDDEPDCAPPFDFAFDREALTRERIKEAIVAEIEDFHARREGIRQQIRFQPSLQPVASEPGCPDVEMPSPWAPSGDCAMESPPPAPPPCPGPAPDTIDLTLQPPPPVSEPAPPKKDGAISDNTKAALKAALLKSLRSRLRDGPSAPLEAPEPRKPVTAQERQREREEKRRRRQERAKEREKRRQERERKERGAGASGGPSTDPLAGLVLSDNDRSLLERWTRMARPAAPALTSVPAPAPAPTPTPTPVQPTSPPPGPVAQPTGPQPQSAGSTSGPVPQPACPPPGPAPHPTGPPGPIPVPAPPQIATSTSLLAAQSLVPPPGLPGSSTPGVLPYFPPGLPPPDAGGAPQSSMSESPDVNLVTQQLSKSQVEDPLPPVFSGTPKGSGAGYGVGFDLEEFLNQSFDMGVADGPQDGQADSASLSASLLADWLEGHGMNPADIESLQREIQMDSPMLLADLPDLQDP
CDK5, sequence (Q00535 whole entry): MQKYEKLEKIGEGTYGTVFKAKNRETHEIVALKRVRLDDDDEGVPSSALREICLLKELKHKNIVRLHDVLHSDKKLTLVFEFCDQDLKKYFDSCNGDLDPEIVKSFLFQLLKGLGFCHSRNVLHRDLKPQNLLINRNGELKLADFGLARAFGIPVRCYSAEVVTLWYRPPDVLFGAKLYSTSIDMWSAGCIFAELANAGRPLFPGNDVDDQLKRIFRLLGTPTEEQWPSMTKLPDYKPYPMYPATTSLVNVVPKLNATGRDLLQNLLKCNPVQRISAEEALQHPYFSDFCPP
ERK3, sequence (Q16659 whole entry): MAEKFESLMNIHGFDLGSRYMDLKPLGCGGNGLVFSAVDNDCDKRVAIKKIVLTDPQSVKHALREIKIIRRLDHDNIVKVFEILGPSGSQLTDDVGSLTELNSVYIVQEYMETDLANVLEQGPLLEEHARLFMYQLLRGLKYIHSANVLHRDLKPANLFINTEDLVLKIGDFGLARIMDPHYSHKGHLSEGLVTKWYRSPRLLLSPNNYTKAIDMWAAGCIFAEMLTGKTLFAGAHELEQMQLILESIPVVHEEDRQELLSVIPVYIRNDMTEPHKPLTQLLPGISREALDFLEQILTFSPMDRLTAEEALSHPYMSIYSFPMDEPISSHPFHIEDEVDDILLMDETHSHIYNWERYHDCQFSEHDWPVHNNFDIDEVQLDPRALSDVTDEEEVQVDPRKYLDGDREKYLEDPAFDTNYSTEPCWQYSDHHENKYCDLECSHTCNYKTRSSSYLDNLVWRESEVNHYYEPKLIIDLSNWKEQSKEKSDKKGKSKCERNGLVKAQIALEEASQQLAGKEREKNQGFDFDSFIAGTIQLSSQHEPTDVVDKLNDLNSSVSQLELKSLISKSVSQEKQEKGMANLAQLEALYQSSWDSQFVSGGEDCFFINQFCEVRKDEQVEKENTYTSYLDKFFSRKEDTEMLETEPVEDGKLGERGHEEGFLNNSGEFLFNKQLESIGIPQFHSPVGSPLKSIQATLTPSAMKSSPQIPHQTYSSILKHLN
GSK3B, sequence (P49841 whole entry): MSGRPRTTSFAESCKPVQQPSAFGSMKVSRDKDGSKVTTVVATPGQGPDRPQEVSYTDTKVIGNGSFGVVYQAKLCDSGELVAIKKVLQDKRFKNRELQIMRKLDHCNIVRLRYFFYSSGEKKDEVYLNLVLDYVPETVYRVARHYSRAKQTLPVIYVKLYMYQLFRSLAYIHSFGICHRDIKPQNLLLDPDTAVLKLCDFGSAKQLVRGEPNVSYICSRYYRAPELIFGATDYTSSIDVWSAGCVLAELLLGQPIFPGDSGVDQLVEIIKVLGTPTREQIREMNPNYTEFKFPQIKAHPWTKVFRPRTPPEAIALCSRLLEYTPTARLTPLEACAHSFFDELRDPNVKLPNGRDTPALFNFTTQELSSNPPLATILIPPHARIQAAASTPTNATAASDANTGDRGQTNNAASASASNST
GSK3A, sequence (P49840 whole entry): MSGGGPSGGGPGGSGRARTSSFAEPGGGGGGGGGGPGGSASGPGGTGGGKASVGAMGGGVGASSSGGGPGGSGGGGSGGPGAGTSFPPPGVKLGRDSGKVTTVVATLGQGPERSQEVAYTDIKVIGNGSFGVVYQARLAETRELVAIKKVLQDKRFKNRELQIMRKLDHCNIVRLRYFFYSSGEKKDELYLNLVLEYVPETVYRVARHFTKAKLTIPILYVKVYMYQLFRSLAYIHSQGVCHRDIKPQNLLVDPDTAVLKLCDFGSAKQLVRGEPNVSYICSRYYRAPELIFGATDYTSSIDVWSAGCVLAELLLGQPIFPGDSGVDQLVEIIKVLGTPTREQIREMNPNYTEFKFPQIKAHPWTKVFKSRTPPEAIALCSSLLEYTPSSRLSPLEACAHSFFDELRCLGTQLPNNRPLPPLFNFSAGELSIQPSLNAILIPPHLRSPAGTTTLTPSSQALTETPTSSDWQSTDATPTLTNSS
ERK4, sequence (P31152 whole entry): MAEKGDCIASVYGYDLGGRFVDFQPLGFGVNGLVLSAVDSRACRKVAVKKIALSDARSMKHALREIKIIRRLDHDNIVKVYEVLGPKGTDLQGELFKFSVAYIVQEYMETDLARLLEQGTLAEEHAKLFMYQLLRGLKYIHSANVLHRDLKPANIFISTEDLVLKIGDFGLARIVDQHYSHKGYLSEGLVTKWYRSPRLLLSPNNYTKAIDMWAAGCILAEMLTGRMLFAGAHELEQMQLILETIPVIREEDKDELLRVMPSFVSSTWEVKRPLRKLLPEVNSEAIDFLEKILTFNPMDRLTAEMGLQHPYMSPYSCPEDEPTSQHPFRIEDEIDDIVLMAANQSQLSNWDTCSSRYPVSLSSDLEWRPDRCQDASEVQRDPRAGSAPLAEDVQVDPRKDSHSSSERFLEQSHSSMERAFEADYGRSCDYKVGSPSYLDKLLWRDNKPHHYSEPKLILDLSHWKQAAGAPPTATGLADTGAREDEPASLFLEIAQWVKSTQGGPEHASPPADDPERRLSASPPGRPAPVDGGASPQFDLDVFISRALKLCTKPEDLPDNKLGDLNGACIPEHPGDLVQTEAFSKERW
ERK2, sequence (P28482 whole entry): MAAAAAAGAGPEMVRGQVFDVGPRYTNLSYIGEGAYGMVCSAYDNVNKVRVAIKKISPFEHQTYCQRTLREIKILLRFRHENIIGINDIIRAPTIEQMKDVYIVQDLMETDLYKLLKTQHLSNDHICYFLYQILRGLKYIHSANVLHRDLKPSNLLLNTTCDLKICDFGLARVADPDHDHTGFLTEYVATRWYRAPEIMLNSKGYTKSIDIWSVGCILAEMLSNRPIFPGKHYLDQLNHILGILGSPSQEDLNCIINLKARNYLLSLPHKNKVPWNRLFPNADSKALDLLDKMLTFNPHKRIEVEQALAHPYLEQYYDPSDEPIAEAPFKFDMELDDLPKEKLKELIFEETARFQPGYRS
CDK4, sequence (P11802 whole entry): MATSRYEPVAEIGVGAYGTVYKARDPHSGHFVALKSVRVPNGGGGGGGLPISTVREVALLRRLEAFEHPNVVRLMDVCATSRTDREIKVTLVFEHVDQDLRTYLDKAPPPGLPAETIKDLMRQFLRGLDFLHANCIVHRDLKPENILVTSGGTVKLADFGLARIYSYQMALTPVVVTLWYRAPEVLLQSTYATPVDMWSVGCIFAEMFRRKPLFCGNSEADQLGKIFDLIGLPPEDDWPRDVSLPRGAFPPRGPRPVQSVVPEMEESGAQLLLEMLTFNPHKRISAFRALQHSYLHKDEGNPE
ERK1, sequence (P27361 whole entry): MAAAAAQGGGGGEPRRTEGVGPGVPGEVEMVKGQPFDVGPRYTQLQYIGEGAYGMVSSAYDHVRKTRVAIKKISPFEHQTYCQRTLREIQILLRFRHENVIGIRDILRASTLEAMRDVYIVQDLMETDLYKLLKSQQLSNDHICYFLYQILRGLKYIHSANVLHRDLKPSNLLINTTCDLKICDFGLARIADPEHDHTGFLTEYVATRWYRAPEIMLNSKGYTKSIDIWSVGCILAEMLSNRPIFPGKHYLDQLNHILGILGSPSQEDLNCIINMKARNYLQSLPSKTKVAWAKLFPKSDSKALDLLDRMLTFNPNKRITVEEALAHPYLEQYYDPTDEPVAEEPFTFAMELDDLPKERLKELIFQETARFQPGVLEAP

In the case of `O=C(c1ccncc1)c1cc2ccccc2n1S(=O)(=O)c1ccccc1` [FKK5, (1-(phenylsulfonyl)-1H-indol-2-yl)(pyridin-4-yl)methanone], the “%Ctrl” value (CDK2; 10000 nM, 10 µM) was 100 %Ctrl and 74 %Ctrl, the “%Ctrl” value (CDK2; 25000 nM, 25 µM) was 89 %Ctrl and 63 %Ctrl and the “%Ctrl” value (CDK4; 10000 nM, 10 µM) was 98 %Ctrl. For the same molecule, the remaining binding at 10 µM (CDK4; 10000 nM, read-out: %Ctrl) was 100%, the “%Ctrl” value (CDK4; 25000 nM, 25 µM) was 90 %Ctrl and the remaining binding at 25 µM (CDK4; 25000 nM, read-out: %Ctrl) was 95%. The “%Ctrl” value (CDK5; 10000 nM, 10 µM) was 77 %Ctrl and 100 %Ctrl, the “%Ctrl” value (CDK5; 25000 nM, 25 µM) was 61 %Ctrl and 100 %Ctrl and the “%Ctrl” value (ERK1; 10 µM) was 100 %Ctrl. The remaining binding at 10 µM (ERK1; read-out: %Ctrl) was 86%, the “%Ctrl” value (ERK2; 10000 nM, 10 µM) was 100 %Ctrl and the remaining binding at 10 µM (ERK2; 10000 nM, read-out: %Ctrl) was 99%. For the same molecule, the “%Ctrl” value (ERK2; 25000 nM, 25 µM) was 85 %Ctrl, the remaining binding at 25 µM (ERK2; 25000 nM, read-out: %Ctrl) was 94% and the “%Ctrl” value (ERK3; 10000 nM, 10 µM) was 88 %Ctrl. For the same molecule, the remaining binding at 10 µM (ERK3; 10000 nM, read-out: %Ctrl) was 100%, the “%Ctrl” value (ERK3; 25000 nM, 25 µM) was 93 %Ctrl and the remaining binding at 25 µM (ERK3; 25000 nM, read-out: %Ctrl) was 80%. The “%Ctrl” value (ERK4; 10000 nM, 10 µM) was 82 %Ctrl, the remaining binding at 10 µM (ERK4; 10000 nM, read-out: %Ctrl) was 97% and the “%Ctrl” value (ERK4; 25000 nM, 25 µM) was 91 %Ctrl. The remaining binding at 25 µM (ERK4; 25000 nM, read-out: %Ctrl) was 89%, the “%Ctrl” value (ERK5; 10000 nM, 10 µM) was 79 %Ctrl and the remaining binding at 10 µM (ERK5; 10000 nM, read-out: %Ctrl) was 94%. For the same molecule, the “%Ctrl” value (ERK5; 25000 nM, 25 µM) was 92 %Ctrl, the remaining binding at 25 µM (ERK5; 25000 nM, read-out: %Ctrl) was 100% and the “%Ctrl” value (ERK8; 10000 nM, 10 µM) was 97 %Ctrl and 71 %Ctrl. The “%Ctrl” value (ERK8; 25000 nM, 25 µM) was 65 %Ctrl, the remaining binding at 25 µM (ERK8; 25000 nM, read-out: %Ctrl) was 75% and the “%Ctrl” value (GSK3A; 10000 nM, 10 µM) was 92 %Ctrl. For the same molecule, the remaining binding at 10 µM (GSK3A; 10000 nM, read-out: %Ctrl) was 79%, the “%Ctrl” value (GSK3A; 25000 nM, 25 µM) was 49 %Ctrl and 77 %Ctrl and the “%Ctrl” value (GSK3B; 10000 nM, 10 µM) was 92 %Ctrl. For the same molecule, the remaining binding at 10 µM (GSK3B; 10000 nM, read-out: %Ctrl) was 100%, the “%Ctrl” value (GSK3B; 25000 nM, 25 µM) was 90 %Ctrl and the remaining binding at 25 µM (GSK3B; 25000 nM, read-out: %Ctrl) was 98%. The “%Ctrl” value (IKK-alpha; 10000 nM, 10 µM) was 86 %Ctrl, the remaining binding at 10 µM (IKK-alpha; 10000 nM, read-out: %Ctrl) was 96% and the “%Ctrl” value (IKK-alpha; 25000 nM, 25 µM) was 100 %Ctrl. For the same molecule, the remaining binding at 25 µM (IKK-alpha; 25000 nM, read-out: %Ctrl) was 83%.

From publication PMC7136958, “Targeting the pregnane X receptor using microbial metabolite mimicry” (EMBO Molecular Medicine, 2020)
